Drawing on patent US20250171437A1 (Agios Pharmaceuticals,Inc., priority 2022, published 2025), this text covers AC50 for 25 compounds.

Some results are limits rather than exact numbers.

This assay concerns the target T1, human PAH with the R408W mutation (A375 R408W cells) (Homo sapiens, UniProt P00439, R408W).
T1 construct: expressed in transfected cells
T1 sequence (P00439 1-452 R408W): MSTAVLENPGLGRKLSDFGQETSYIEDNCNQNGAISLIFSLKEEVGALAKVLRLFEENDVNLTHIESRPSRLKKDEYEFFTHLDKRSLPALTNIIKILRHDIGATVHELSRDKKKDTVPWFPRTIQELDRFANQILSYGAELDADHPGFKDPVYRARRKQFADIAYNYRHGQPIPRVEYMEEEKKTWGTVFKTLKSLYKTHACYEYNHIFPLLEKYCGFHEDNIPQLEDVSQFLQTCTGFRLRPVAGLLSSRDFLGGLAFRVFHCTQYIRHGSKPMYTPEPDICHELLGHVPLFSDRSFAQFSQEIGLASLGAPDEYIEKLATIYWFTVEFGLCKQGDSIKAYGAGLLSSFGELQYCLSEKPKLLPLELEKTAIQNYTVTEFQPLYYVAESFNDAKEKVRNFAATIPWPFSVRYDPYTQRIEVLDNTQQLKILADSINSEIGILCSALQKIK
The assay can be described thus: Cell Based Phenylalanine Flux Assay. The following applies: A375 R408W cells; 24 hrs with compound, then 20 μM sepiapterin and 800 μM 13C9,15N-Phenylalanine for 4 hours; 13C-Tyrosine by LC-MS; average where tested multiple times. A digest of the protocol:
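Puromycin-selected A375 line, lentiviral hPAH R408W; cmpd 24 h, 37 °C, 5% CO2, 0.5% DMSO; then 20 μM sepiapterin + 800 μM 13C9,15N-Phe, 4 h; media extracted in 80% MeCN; 13C-Tyr by LC-MS; AC50 from 10-pt curves.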
A word on the AC50: it is the concentration at which the activity in the assay is half-maximal. As for `CC(C)(O)c1nc(C(F)F)c(C(=O)N2CCc3[nH]cnc3[C@H]2c2nc3cccc(OC(F)(F)F)c3o2)o1` [Example 529, (S)-(4-(difluoromethyl)-2-(2-hydroxypropan-2-yl)oxazol-5-yl)(4-(7-(trifluoromethoxy)benzo[d]oxazol-2-yl)-6,7-dihydro-1H-imidazo[4,5-c]pyridin-5(4H)-yl)methanone], the AC50 is at most 0.5 µM.

Turning to `CC(C)(O)c1nc(C(F)F)c(C(=O)N2CCc3[nH]cnc3[C@@H]2c2nc3cccc(OC(F)(F)F)c3o2)o1` [Example 530, (R)-(4-(difluoromethyl)-2-(2-hydroxypropan-2-yl)oxazol-5-yl)(4-(7-(trifluoromethoxy)benzo[d]oxazol-2-yl)-6,7-dihydro-1H-imidazo[4,5-c]pyridin-5(4H)-yl)methanone], the AC50 fell in the range of 0.5 to 1 µM.

Turning to `O=C(c1ocnc1C(F)F)N1CCc2[nH]cnc2[C@@H]1c1nc2cccc(OC(F)(F)F)c2o1` [Example 531, (R)-(4-(difluoromethyl)oxazol-5-yl)(4-(7-(trifluoromethoxy)benzo[d]oxazol-2-yl)-6,7-dihydro-1H-imidazo[4,5-c]pyridin-5(4H)-yl)methanone], the AC50 is at most 0.5 µM. As for `O=C(c1ocnc1C(F)F)N1CCc2[nH]cnc2[C@H]1c1nc2cccc(OC(F)(F)F)c2o1` [Example 532, (S)-(4-(difluoromethyl)oxazol-5-yl)(4-(7-(trifluoromethoxy)benzo[d]oxazol-2-yl)-6,7-dihydro-1H-imidazo[4,5-c]pyridin-5(4H)-yl)methanone], the figure is at most 0.5 µM. As for `CC(C)(O)c1nc(C(F)F)c(C(=O)N2CCc3[nH]cnc3[C@H]2c2nc3c(OC(F)(F)F)cccc3o2)o1` [Example 533, (S)-(4-(difluoromethyl)-2-(2-hydroxypropan-2-yl)oxazol-5-yl)(4-(4-(trifluoromethoxy)benzo[d]oxazol-2-yl)-6,7-dihydro-1H-imidazo[4,5-c]pyridin-5(4H)-yl)methanone], the AC50 was at most 0.5 µM. The value for `CC(C)(O)c1nc(C(F)F)c(C(=O)N2CCc3[nH]cnc3[C@@H]2c2nc3c(OC(F)(F)F)cccc3o2)o1` [Example 534, (R)-(4-(difluoromethyl)-2-(2-hydroxypropan-2-yl)oxazol-5-yl)(4-(4-(trifluoromethoxy)benzo[d]oxazol-2-yl)-6,7-dihydro-1H-imidazo[4,5-c]pyridin-5(4H)-yl)methanone] was at most 0.5 µM; that for `O=C(c1ocnc1C(F)F)N1CCc2[nH]cnc2[C@@H]1c1nc2c(OC(F)(F)F)cccc2o1` [Example 535, (R)-(4-(difluoromethyl)oxazol-5-yl)(4-(4-(trifluoromethoxy)benzo[d]oxazol-2-yl)-6,7-dihydro-1H-imidazo[4,5-c]pyridin-5(4H)-yl)methanone] was at most 0.5 µM.

Turning to `O=C(c1ocnc1C(F)F)N1CCc2[nH]cnc2[C@H]1c1nc2c(OC(F)(F)F)cccc2o1` [Example 536, (S)-(4-(difluoromethyl)oxazol-5-yl)(4-(4-(trifluoromethoxy)benzo[d]oxazol-2-yl)-6,7-dihydro-1H-imidazo[4,5-c]pyridin-5(4H)-yl)methanone], the AC50 is at most 0.5 µM. As to `Cc1ccc2c(C(=O)N3CCc4[nH]cnc4[C@H]3c3nc4c(F)cccc4o3)cnn2c1` [Example 537, (S)-(4-(4-fluorobenzo[d]oxazol-2-yl)-6,7-dihydro-1H-imidazo[4,5-c]pyridin-5(4H)-yl)(6-methylpyrazolo[1,5-a]pyridin-3-yl)methanone], the concentration at half-maximal activity (AC50) is at most 0.5 µM. `Cc1ccc2c(C(=O)N3CCc4[nH]cnc4[C@@H]3c3nc4c(F)cccc4o3)cnn2c1` [Example 538, (R)-(4-(4-fluorobenzo[d]oxazol-2-yl)-6,7-dihydro-1H-imidazo[4,5-c]pyridin-5(4H)-yl)(6-methylpyrazolo[1,5-a]pyridin-3-yl)methanone]: the AC50 was 1 to 5 µM.

As for `COc1ccc2c(C(=O)N3CCc4[nH]cnc4[C@H]3c3nc4c(F)cccc4o3)cnn2c1` [Example 539, (S)-(4-(4-fluorobenzo[d]oxazol-2-yl)-6,7-dihydro-1H-imidazo[4,5-c]pyridin-5(4H)-yl)(6-methoxypyrazolo[1,5-a]pyridin-3-yl)methanone], the AC50 was at most 0.5 µM.

As to `COc1ccc2c(C(=O)N3CCc4[nH]cnc4[C@@H]3c3nc4c(F)cccc4o3)cnn2c1` [Example 540, (R)-(4-(4-fluorobenzo[d]oxazol-2-yl)-6,7-dihydro-1H-imidazo[4,5-c]pyridin-5(4H)-yl)(6-methoxypyrazolo[1,5-a]pyridin-3-yl)methanone], the concentration at half-maximal activity (AC50) lay in the range of 1 to 5 µM.

For `Cn1cc(-c2ccc3c(C(=O)N4CCc5[nH]cnc5[C@H]4c4nc5c(F)cccc5o4)cnn3c2)cn1` [Example 541, (S)-(4-(4-fluorobenzo[d]oxazol-2-yl)-6,7-dihydro-1H-imidazo[4,5-c]pyridin-5(4H)-yl)(6-(1-methyl-1H-pyrazol-4-yl)pyrazolo[1,5-a]pyridin-3-yl)methanone], the AC50 was at most 0.5 µM.

As for `Cn1cc(-c2ccc3c(C(=O)N4CCc5[nH]cnc5[C@@H]4c4nc5c(F)cccc5o4)cnn3c2)cn1` [Example 542, (R)-(4-(4-fluorobenzo[d]oxazol-2-yl)-6,7-dihydro-1H-imidazo[4,5-c]pyridin-5(4H)-yl)(6-(1-methyl-1H-pyrazol-4-yl)pyrazolo[1,5-a]pyridin-3-yl)methanone], the AC50 was 1 to 5 µM. As for `O=C(c1cnn2cc(-c3ccccn3)ccc12)N1CCc2[nH]cnc2[C@H]1c1nc2c(F)cccc2o1` [Example 543, (S)-(4-(4-fluorobenzo[d]oxazol-2-yl)-6,7-dihydro-1H-imidazo[4,5-c]pyridin-5(4H)-yl)(6-(pyridin-2-yl)pyrazolo[1,5-a]pyridin-3-yl)methanone], the figure is at most 0.5 µM. The value for `O=C(c1cnn2cc(-c3ccccn3)ccc12)N1CCc2[nH]cnc2[C@@H]1c1nc2c(F)cccc2o1` [Example 544, (R)-(4-(4-fluorobenzo[d]oxazol-2-yl)-6,7-dihydro-1H-imidazo[4,5-c]pyridin-5(4H)-yl)(6-(pyridin-2-yl)pyrazolo[1,5-a]pyridin-3-yl)methanone] was 1 to 5 µM; that for `O=C(c1nnc(-c2ccccn2)o1)N1CCc2[nH]cnc2[C@@H]1c1nc2ccc(F)c(F)c2o1` [Example 545, (R)-(4-(6,7-difluorobenzo[d]oxazol-2-yl)-6,7-dihydro-1H-imidazo[4,5-c]pyridin-5(4H)-yl)(5-(pyridin-2-yl)-1,3,4-oxadiazol-2-yl)methanone] was 1 to 5 µM; that for `O=C(c1nnc(-c2ccccn2)o1)N1CCc2[nH]cnc2[C@H]1c1nc2ccc(F)c(F)c2o1` [Example 546, (S)-(4-(6,7-difluorobenzo[d]oxazol-2-yl)-6,7-dihydro-1H-imidazo[4,5-c]pyridin-5(4H)-yl)(5-(pyridin-2-yl)-1,3,4-oxadiazol-2-yl)methanone] was 0.5 to 1 µM. As to `O=C(c1cnco1)N1CCc2[nH]cnc2[C@H]1c1nc2ccccc2o1` [Example 547, (S)-(4-(benzo[d]oxazol-2-yl)-6,7-dihydro-1H-imidazo[4,5-c]pyridin-5(4H)-yl)(oxazol-5-yl)methanone], the concentration at half-maximal activity (AC50) was 0.5 to 1 µM. As for `O=C(c1cnco1)N1CCc2[nH]cnc2[C@@H]1c1nc2ccccc2o1` [Example 548, (R)-(4-(benzo[d]oxazol-2-yl)-6,7-dihydro-1H-imidazo[4,5-c]pyridin-5(4H)-yl)(oxazol-5-yl)methanone], the figure is 1 to 5 µM; as for `COc1ccc2oc([C@@H]3c4nc[nH]c4CCN3C(=O)c3nc(C(F)F)nn3C)nc2c1` [Example 549, (S)-(3-(difluoromethyl)-1-methyl-1H-1,2,4-triazol-5-yl)(4-(5-methoxybenzo[d]oxazol-2-yl)-6,7-dihydro-1H-imidazo[4,5-c]pyridin-5(4H)-yl)methanone], 0.5 to 1 µM. As for `COc1ccc2oc([C@H]3c4nc[nH]c4CCN3C(=O)c3nc(C(F)F)nn3C)nc2c1` [Example 550, (R)-(3-(difluoromethyl)-1-methyl-1H-1,2,4-triazol-5-yl)(4-(5-methoxybenzo[d]oxazol-2-yl)-6,7-dihydro-1H-imidazo[4,5-c]pyridin-5(4H)-yl)methanone], the figure is 1 to 5 µM; as for `COc1ccc2oc([C@@H]3c4nc[nH]c4CCN3C(=O)c3ccnn3C(F)F)nc2c1` [Example 551, (S)-(1-(difluoromethyl)-1H-pyrazol-5-yl)(4-(5-methoxybenzo[d]oxazol-2-yl)-6,7-dihydro-1H-imidazo[4,5-c]pyridin-5(4H)-yl)methanone], 0.5 to 1 µM; as for `COc1ccc2oc([C@H]3c4nc[nH]c4CCN3C(=O)c3ccnn3C(F)F)nc2c1` [Example 552, (R)-(1-(difluoromethyl)-1H-pyrazol-5-yl)(4-(5-methoxybenzo[d]oxazol-2-yl)-6,7-dihydro-1H-imidazo[4,5-c]pyridin-5(4H)-yl)methanone], 1 to 5 µM. In the case of `COc1ccc2oc([C@@H]3c4nc[nH]c4CCN3C(=O)c3nnc(-c4cnn(C)c4)o3)nc2c1` [Example 553, (S)-(4-(5-methoxybenzo[d]oxazol-2-yl)-6,7-dihydro-1H-imidazo[4,5-c]pyridin-5(4H)-yl)(5-(1-methyl-1H-pyrazol-4-yl)-1,3,4-oxadiazol-2-yl)methanone], the AC50 lay in the range of 0.5 to 1 µM.
